Values quoted from earlier work in patent US6051685A, “Peptide derivatives” (Daiichi Pharmaceuticals Co., Ltd., priority 1994, dated 2000).

Legend:
[1] = intraventricular administration
[2] = in vivo

Q: With `C[C@@H](NC(=O)[C@@H](N)Cc1ccc(O)cc1)C(=O)N[C@@H](Cc1ccccc1)C(=O)NCC(=O)N[C@@H](Cc1ccc(O)cc1)C(=O)N1CCC[C@H]1C(=O)N[C@@H](CO)C(N)=O` [Delmorfine, Dermorphin] as the compound, how does the “analgesic effect relative to morphine” value [1] read?
A: about 1,000 fold

Q: And the “stability in living bodies” value [2]?
A: relatively stable in living bodies
